Measurements as given in patent publication US7132506B2, “Peptide having osteogenetic activity and osteogenetic accelerator containing the same” (Kyocera Corporation, priority 2001, dated 2006).

System: C3H10T1/2 cell strain
Test: Induction of alkali phosphatase activity in C3H10T1/2 cell strain
Format: cell-based, mouse
Conditions: 200 μg peptide solidified per well by air drying; three days of incubation; blank wells 0.24±0.11
Description: Undifferentiated mouse mesenchymal cell strain C3H10T1/2 (purchased from Dai-Nippon Seiyaku KK, Japan) was dispersed in Eagle's MEM medium containing 10% of fetal bovine serum in a cell concentration of 3.75×10^4 cells/mL, and thus a cell culture liquid was prepared.
Three days after the start of incubation, a culture supernatant was removed, and the wells were washed once with phosphate buffer (PBS: 10 mM, containing 0.15 M of common salt, pH 7.4). To each well of the 96-hole plates, 100 μL of Tris buffer (20 mM, pH 8.5) containing 1% Triton X-100 was added and allowed to stand for 30 minutes to dissolve cells. With respect to 100 μL of the resulting cell solution, 100 μL of Tris buffer (1.5 M, containing 1 mM of ZnCl2 and 1 mM of MgCl2, pH 8.5) containing 7.5 mM of p-nitrophenyl phosphate (purchased from Wako Junyaku Kogyo, Japan) were added. Increase in absorbency at 405 nm was measured to determine the alkaline phosphatase activity in the cell solution. The concentration of protein in the cell solution was also determined using a BCA assay kit (produced by Pierce).

| Substance | alkaline phosphatase activity [nmol/min·mg-protein] |
| --- | --- |
| Example 1: Peptide having amino acid sequence SEQ ID NO:4 with an amino group at the N terminal and a carboxyl group at the C terminal (NSVNSKIPKACSVPTELSAISTLYL) | 1.3±0.9 |
| Example 2: Peptide having amino acid sequence SEQ ID NO:4 with an amino group at the N terminal and an amide group at the C terminal (H-NSVNSKIPKACSVPTELSAISTLYL-NH2) | 1.5±0.6 |
| Example 3: Peptide having amino acid sequence SEQ ID NO:5 with an amino group at the N terminal and an amide group at the C terminal (H-NSVNSKIPKASSVPTELSAISTLYL-NH2) | 1.5±0.8 |
| Example 4: Peptide having amino acid sequence SEQ ID NO:6 with an amino group at the N terminal and an amide group at the C terminal (H-KIPKASSVPTELSAISTLYL-NH2) | 1.7±0.1 |
